According to PubChem BioAssay AID463099 (The Scripps Research Institute Molecular Screening Center, 2010):

tested on: IMP-1-expressing E. coli growth, with imipenem, MIC; assay: MIC in IMP1-transformed E. coli with imipenem – imipenem co-treatment, counter-screen for IMP-1/VIM-2 inhibitor project, late-stage follow-up (AID 463099)

Row | SMILES | MIC [µM]
1 | Cc1cc[c]([Hg+])cc1 | 0.94
2 | O=C(O)c1cc[c]([Hg][Cl])cc1 | 9.38
3 | COc1cccc[c]1[Hg+] | 1.09
4 | CC(=O)Nc1cc[c]([Hg+])cc1 | 2.5
5 | [Hg+][c]1ccccc1 | 0.63
6 | O=C(O)c1ccc[c]([Hg+])c1 | 3.75
